Data on one substance can be found in patent US11459570B2, “Transgenic mouse expressing amyloid precursor protein that has olfactory neuron degeneration” (The General Hospital Corporation, priority 2014, dated 2022).

Test [1] relates to neuronal differentiated ReNcell VM cells. Briefly: Viability of differentiated ReNcell VM neurons transfected with poly IC (Celltiter-Glo). It is filed as cell-based, human. The settings on record: escalating doses of poly IC, after 2 days (48 hours) in culture. The protocol:
(§1) FIGS. 12A-G. dsRNA induces a Type I interferon response and is sufficient to induced neurodegeneration in human neurons. A-E) Representative transmitted light images of differentiated ReNVM neurons transfected with increasing doses of PolyIC, a dsRNA mimetic, showing a dose-dependent loss of neurons after 48 hours.
(§2) Cytoplasmic dsRNA is sensed by three different proteins, PKR, MDA5, and RIG-I, that are components of the innate immune system. Engagement of each protein by dsRNA induces interferon signaling and neurodegeneration. […] To determine if cytoplasmic dsRNA was sufficient to mediate neurodegeneration in a human neurons, we transfected neuronal differentiated ReNcell VM cells, a human neural cell line derived from ventral mesencephalon, with escalating doses of poly IC (which mimics a GC dinucleotide repeat).
In general terms: In ATP-based viability assays light output follows the ATP content of the culture.

The test system of another test is MDA5 and PKR. Briefly: Western blots of type I interferon-stimulated genes in differentiated ReNVM cells after PolyIC transfection. It is filed as cell-based, human. As to conditions: western blot, 24 hour post transfection with PolyIC. The protocol:
as §1, §2
Background: Immunoblotting shows a protein as a band on a membrane.

The subject of another test is OSNs. The settings on record: mice, intranasal instillation; cited from earlier work.
Another test concerns cortical neurons. The settings on record: rats; cited from earlier work.

Consider “polyinosinic-polycytidylic acid [poly IC]”, for which the “viability of ReNVM neurons relative to mock-transfected neurons” value is recorded as “dose-dependent reduction in their viability” in test [1] and “dose-dependent loss in cell viability” in test [1] (listed as PolyIC). Moreover, the “protein expression of type I interferon-stimulated genes (MDA5, PKR)” value was “massive induction of MDA5 and PKR” in the test on MDA5 and PKR; “elevated protein expression of type I interferon-stimulated genes” in the test on MDA5 and PKR (listed as PolyIC). For the same substance, the “degeneration of OSNs” value in the test with OSNs was “causes degeneration”. Also, the “degeneration of cortical neurons” value in the test on cortical neurons is reported as “causes degeneration”.
